Here are results for three compounds from patent publication US11117871B2, “Crystalline forms of GSK1278863, preparation method and pharmaceutical use thereof” (GlaxoSmithKline Intellectual Property (No.2) Limited, priority 2017, dated 2021).

What all share (type): physicochemical
Series [1] can be described thus: Hygroscopicity by dynamic vapor sorption (DVS). As to conditions: for Hygroscopicity (in words): 25° C./80% RH; for Weight gain under 80% Relative Humidity: DVS, 25° C., 80% RH. As to the method: Dynamic vapor sorption (DVS) was applied to test hygroscopicity of Form CS1, Form CS9 and the prior art solid with about 10 mg of samples under 25 °C. The DVS plots of Form CS1, Form CS9 and the prior art solid are substantially as depicted in FIG. 10, FIG. 11 and FIG. 12.

Series [2] is described as follows: Kinetic solubility in SGF, FeSSIF, FaSSIF and pure water (HPLC). As to conditions: for Solubility (in words): SGF, FeSSIF, FaSSIF and pure water. From the text: Solubility test method according to the Chinese Pharmacopoeia was used and different pHs of different organs in human body were considered. According to the above two references, a solvent media set with four pH values range from 1.2 to 7.5 were designed in the present disclosure. Specifically: SGF (Simulated gastric fluids, pH=1.8), FeSSIF (Fed state simulated intestinal fluids, pH=5.0), FaSSIF (Fasted state simulated intestinal fluids, pH=6.5), and pure water were used.
Form CS1 and Form CS9 of the present disclosure were suspended into SGF, FeSSIF, FaSSIF and H2O to obtain saturated solutions. The solutions were sampled at fixed time points. Concentrations of the saturated solutions were measured by HPLC to measure the kinetic solubility of Form CS1 and Form CS9.

A short description of series [3]: Physical stability of drug substance on storage (XRPD before/after). As to conditions: for Solid form after storage: 3 months, XRPD; for Time for which crystalline form of drug substance doesn't change on storage: 40° C./75% RH and 60° C./75% RH. As to the method: Form CS1 was stored under different conditions of 25° C./60% RH, 40° C./75% RH and 60° C./75% RH. The XRPD pattern overlay before and after being stored is substantially as depicted in FIG. 13, FIG. 14 and FIG. 15.
Form CS9 was stored under different conditions of 25° C./60% RH, 40° C./75% RH and 60° C./75% RH. The XRPD pattern overlay before and after being stored is substantially as depicted in FIG. 16, FIG. 17 and FIG. 18.

Series [4] can be described thus: Flowability by compressibility index (USP 1174). The settings on record: for Bulk density: 5 mL measuring cylinder, before tapping; for Tapped density: 500 taps; for Compressibility index: (Tapped Density−Bulk Density)/Tapped Density×100%; for Flowability: scale of USP 1174 by compressibility index. As to the method:
According to the United States Pharmacopeia (USP) 1174, flowability of Form CS1 and Form CS9 of the present disclosure were evaluated by the compressibility index. The bulk density, tapped density of Form CS1 and Form CS9 were tested, and compressibility index was calculated.
1. Test Method • Samples: Form CS1 and Form CS9 • Instrument: Tap density tester • Utensil: 5 mL measuring cylinder • Number of tapping: 500 times • Bulk density=m/vQ (Mass/volume before tapping) • Tapped density=m/vt (Mass/volume after tapping)
2. Calculation Formula: Compressibility Index (%)=(Tapped Density−Bulk Density)/Tapped Density×100%

A short description of series [5]: Stability of crystalline form in drug products (tablets). The settings on record: for Crystalline form before and after formulation process (in words): blending and tableting at 5 KN±1 KN; for Crystalline form of drug substance in the drug products after storage (in words): tablets, 40° C., 1 month. As to the method:
(§1) Form CS1 or Form CS9 of GSK1278863, microcrystalline cellulose, croscarmellose sodium and magnesium stearate were weighed according to formulation in Table 14 and blended for 2 minutes. The tablets were prepared using a manual tablet press at 5 KN±1 KN pressure with a φ7 mm round tooling. The tablets tablet weight is 100 mg±1 mg. The obtained tablets were packed in 35 cc HDPE bottles (one tablet per bottle) with 1 g desiccant. The bottles were sealed with a sealer.
The above obtained tablets were stored under 40° C./[…] condition for 1 month. […] The results are shown in Table 16, which indicate that Form CS1 and Form CS9 have good stability in the drug products.

A short description of series [6]: In vitro dissolution of tablets (Chinese Pharmacopoeia 2015 <0931>, paddle). The settings on record: tablet, pH=6.8 phosphate buffer + 1% SDS, 37° C., 75 rpm. As to the method:
as §1
In vitro dissolution test was performed on obtained tablets and dissolution method according to Chinese Pharmacopoeia 2015<0931> was used. The conditions are as follows:
Medium: pH=6.8 phosphate buffer solution+1% sodium dodecyl sulfate aqueous solution

Converted amounts (≈) assume the structure as drawn.

For the compound `O=C(O)CNC(=O)C1C(=O)N(C2CCCCC2)C(=O)N(C2CCCCC2)C1=O` [The prior art solid, reference compound], the “Hygroscopicity (in words)” value in series [1] was “higher hygroscopicity”. Further, the “Weight gain under 80% Relative Humidity” value in series [1] and in series [1] (listed as prior art solid) was 1.14% each time.
For the compound `O=C(O)CNC(=O)C1C(=O)N(C2CCCCC2)C(=O)N(C2CCCCC2)C1=O` [Form CS9], in series [1], the “Hygroscopicity (in words)” value is given as “not hygroscopic”. In addition, the “Weight gain under 80% Relative Humidity” value in series [1] came to 0.22%. Moreover, the Kinetic solubility came out at 58 µg/mL in series [2] (FaSSIF (pH=6.5), 1 h); 81 µg/mL in series [2] (FaSSIF (pH=6.5), 4 h); 81 µg/mL in series [2] (FaSSIF (pH=6.5), 24 h); 150 µg/mL in series [2] (FeSSIF (pH=5.0), 1 h); 170 µg/mL in series [2] (FeSSIF (pH=5.0), 4 h); 140 µg/mL in series [2] (FeSSIF (pH=5.0), 24 h). Also, the Kinetic solubility was 20 µg/mL in series [2] (H2O, 1 h); 38 µg/mL in series [2] (H2O, 4 h); 60 µg/mL in series [2] (H2O, 24 h); 3.9 µg/mL in series [2] (SGF (pH=1.8), 1 h); 4.2 µg/mL in series [2] (SGF (pH=1.8), 4 h); 9.3 µg/mL in series [2] (SGF (pH=1.8), 24 h). Further, the “Solubility (in words)” value in series [2] is listed as “good solubility”. Besides, the “Solid form after storage” value in series [3] (25° C./60% RH), in series [3] (40° C./75% RH) and in series [3] (60° C./75% RH) was “Form CS9” throughout. In addition, the “Time for which crystalline form of drug substance doesn't change on storage” value in series [3] (25° C./60% RH) is “at least 3 months”. This compound also returned a Bulk density in series [4] of 0.11 g/mL. Moreover, the Tapped density in series [4] stood at 0.14 g/mL. In series [4], this compound gave a Compressibility index of 21%. Moreover, the Flowability entry in series [4] is listed as “Passable (21%-25%, passable flowability)”. In series [5], the “Crystalline form before and after formulation process (in words)” value is given as “doesn't change”. Also, the “Crystalline form of drug substance in the drug products after storage (in words)” value in series [5] is “does not change”.
What is called solubility (kinetic) is solubility judged after dilution from a stock solution rather than from solid. `O=C(O)CNC(=O)C1C(=O)N(C2CCCCC2)C(=O)N(C2CCCCC2)C1=O` [Form CS1]: the “Hygroscopicity (in words)” value in series [1] was “not hygroscopic”. For the same compound, the “Weight gain under 80% Relative Humidity” value in series [1] amounted to 0.53%. Also, the solubility (kinetic) at 1 h in series [2] (FaSSIF (fasted state simulated intestinal fluid), pH 6.5, fassif, thermodynamic from solid, FaSSIF (pH=6.5), 1 h) was 63 µg/mL (≈ 160 µM); in series [2] (FeSSIF (fed state simulated intestinal fluid), pH 5, fessif, thermodynamic from solid, FeSSIF (pH=5.0), 1 h) it was 190 µg/mL (≈ 483 µM); in series [2] (SGF (simulated gastric fluid), pH 1.8, simulated gastric fluid, thermodynamic from solid, SGF (pH=1.8), 1 h) it was 3.1 µg/mL (≈ 7.88 µM); in series [2] (pure water, water, thermodynamic from solid, H2O, 1 h) it was 14 µg/mL (≈ 35.6 µM). Moreover, the solubility (kinetic) at 4 h is 50 µg/mL (≈ 127 µM) in series [2] (FaSSIF (fasted state simulated intestinal fluid), pH 6.5, fassif, thermodynamic from solid, FaSSIF (pH=6.5), 4 h); 190 µg/mL (≈ 483 µM) in series [2] (FeSSIF (fed state simulated intestinal fluid), pH 5, fessif, thermodynamic from solid, FeSSIF (pH=5.0), 4 h); 3.1 µg/mL (≈ 7.88 µM) in series [2] (SGF (simulated gastric fluid), pH 1.8, simulated gastric fluid, thermodynamic from solid, SGF (pH=1.8), 4 h); 26 µg/mL (≈ 66.1 µM) in series [2] (pure water, water, thermodynamic from solid, H2O, 4 h). For the same compound, the Kinetic solubility in series [2] (FaSSIF (pH=6.5), 24 h) stood at 27 µg/mL; in series [2] (H2O, 24 h), 16 µg/mL; in series [2] (SGF (pH=1.8), 24 h) it was 3 µg/mL. Moreover, the kinetic solubility at 24 h in series [2] (FeSSIF (fed state simulated intestinal fluid), pH 5, fessif, thermodynamic from solid, FeSSIF (pH=5.0), 24 h) is 160 µg/mL (≈ 407 µM). For the same compound, the “Solubility (in words)” value in series [2] is listed as “good solubility”. For the same compound, the “Solid form after storage” value in series [3] (25° C./60% RH), in series [3] (40° C./75% RH) and in series [3] (60° C./75% RH) was “Form CS1” in each case. Moreover, in series [3] (25° C./60% RH), the “Time for which crystalline form of drug substance doesn't change on storage” value is reported as “at least 3 months”. The Cumulative drug release in series [6] (5 min) turned out to be 0.0%; in series [6] (10 min), 67.7%; in series [6] (20 min), 75.8%; in series [6] (30 min) it was 84.8%; in series [6] (45 min), 90.1%; in series [6] (60 min), 95.2%. In addition, the Cumulative drug release is recorded as 98.3% in series [6] (90 min) and 102.5% in series [6] (120 min). In series [4], this compound yielded a Bulk density of 0.15 g/mL. The Tapped density in series [4] came out at 0.19 g/mL. In series [4], this compound had a Compressibility index of 21%. Besides, the Flowability result in series [4] is given as “Passable (21%-25%, passable flowability)”. For the same compound, the “Crystalline form before and after formulation process (in words)” value in series [5] is “doesn't change”. Besides, in series [5], the “Crystalline form of drug substance in the drug products after storage (in words)” value is “does not change”.
